Experimental data from EP2334184B1, “FUNGICIDAL MIXTURE, CONTAINING FENPROPIDIN AND PENCONAZOLE” (Syngenta Participations AG, priority 2008, dated 2010).

Columns and labels:
[1] = tested on: rose varieties; experiment: Crop safety trials in Holland during the winter / dark season; format: in vivo
Method: The following trials were conducted in Holland during the winter period / dark season, when the total light radiation level is less than 2000 W/m^2 per day.
(§1) These treatments were applied to 8 different rose varieties, and phytotoxicity assessments made at 7 day intervals. A phytotoxicity score of greater than 2.0% indicates unacceptable phytotoxicity; a score of 1.0 to 2.0% is acceptable (but not ideal); a score of less than 1.0% is good.

[2] = tested on: rose varieties; experiment: Crop safety trials in Holland in April (summer trials); format: in vivo; conditions: Cv. Red Naomi
Method: as §1
Corresponding trials were conducted using selected treatments from table 9 above, in Holland in April, when the total light radiation level is above 2000 W/m^2 per day.

[3] = Cv. Grand Prix, 7DAA1 (7 days after first application)
[4] = Cv. Grand Prix, <2000 W/m^2 per day, 0DAA0

SMILES	Percentage phytotoxicity (%) [1, 3]	Percentage phytotoxicity (%) ([1]; Cv. Grand Prix, 7DAA2)	Percentage phytotoxicity (%) ([1]; Cv. Grand Prix, 7DAA3)	Percentage phytotoxicity (%) ([1]; Cv. Grand Prix, 14DAA3)	Percentage phytotoxicity (%) ([1]; Cv. Grand Prix, 21DAA3)	Percentage phytotoxicity (%) [1, 4]	Percentage phytotoxicity (%) ([1]; Cv. Red Naomi, 0DAA0)	Percentage phytotoxicity (%) ([1]; Cv. Red Naomi, 6DAA2)	Percentage phytotoxicity (%) ([1]; Cv. Red Naomi, 7DAA1)	Percentage phytotoxicity (%) ([1]; Cv. Red Naomi, 7DAA3)	Percentage phytotoxicity (%) ([1]; Cv. Red Naomi, 18DAA3)	Percentage phytotoxicity (%) ([2]; 7DAA1)	Percentage phytotoxicity (%) ([2]; 7DAA2)	Percentage phytotoxicity (%) ([2]; 7DAA3)	Percentage phytotoxicity (%) ([2]; 14DAA3)	Percentage phytotoxicity (%) ([2]; >2000 W/m^2 per day, 0DAA0)
CCCC(Cn1cncn1)c1ccc(Cl)cc1Cl (stereo not drawn) [Treatment 8]	0.0%	0.0%	1.3%	0.0%	0.0%	0.0%	0.0%	0.7%	1.3%	0.7%	0.0%	0.0%	0.0%	0.0%	0.0%	0.0%
CCCC(Cn1cncn1)c1ccc(Cl)cc1Cl (stereo not drawn) [Treatment 9]	0.0%	0.0%	4.0%	2.0%	0.3%	0.0%	0.0%	1.7%	2.7%	3.0%	0.7%	–	–	–	–	–
